The values below come from US10188633B2, “Identification of small molecules that facilitate therapeutic exon skipping” (The Regents of the University of California, priority 2011, dated 2019).

Data set [1] has as its system human DMD exon 50 GFP based reporter. The data set can be described thus: Secondary screening, 12 or 16 point titrations on the DMD exon 50 reporter cell line with or without AON6. In kind it is cell-based, mouse. How it is done:
12 or 16 point titrations of compounds were added to the Ex50-GFP and C2C12 myoblasts either with or without AON6.
A stable clone was generated from C2C12 cells transfected with a human exon 50 DMD GFP reporter (ex50GFP) that has been previously described. Ex50GFP reporter myoblasts were seeded into uncoated 384 well plates and were incubated for 4 hours either with or without 300 nM of 2′-O-methyl phosphorothioate AON6 [5′[…] 3′ (SEQ ID NO:1)] targeting the human exon 50 splice donor site. Cells were transfected with AON6 using the FUGENE (Roche) transfection reagent per manufacturer's instructions. Following AON6 incubation, each component of the BioMol library (n=503) was screened at 10 uM concentration with a final concentration of the DMSO carrier being 1%. Forty-eight hours later fluorescence was measured using the MicroXpress high content imager and analyzed using MetaXpress. Immediately preceding imaging, DNA was stained with Hoescht for 30 min. The BioMol screen without AO (−AO) was performed in 6 replicates, and the with AO (+AO) screen was performed in 3 replicates. For the screen analysis raw fluorescence values were normalized to carrier controls present on each plate by subtracting the values. Negative fluorescence values were set to 0. The data from each compound were averaged from all replicates. For secondary screening by 12 or 16 point dose response, Ex50GFP myoblasts or C2C12 cells without the reporter were seeded on uncoated 384 well plates. A sub-optimal dose of AON6 targeting DMD exon 50 was added for 4 hours. Following the 4 hour incubation, a compound dilution was added (beginning at 100 uM with 1:1 dilutions) for either 12 or 16 points. After a 48 hour incubation with compounds, DNA was stained with Hoescht, and fluorescence determined using the high content imager and analyzed with MetaXpress.

The next data set has as its system DMD exon 51. The data set can be described thus: DMD exon 51 skipping in reprogrammed DMD patient fibroblasts fused to myotubes (GM05017, iDRM05017) with exon 51 AO. In kind it is cell-based, human. The procedure:
(A) Differentiated primary mouse myotubes were transfected either with 100 nM 2′-O-methyl M23D, which targets exon 23 splice donor region or mock transfected for 24 hours after which the transfection reagent was removed, and myotubes were treated with different concentrations of Dantrolene for 48 hours. Nested RT-PCR was performed on cDNA between exons 20-26, as previously described. The 901 bp band is the full-length mRNA product, the 688 bp mRNA product is a single skip of exon 23, and the 550 bp mRNA product is a double skip of exons 22 and 23. (B) Mouse Dmd exon 23-skipped transcript levels were quantified using a taqman assay with primer-probe sets spanning the splice junction created by an exon 23 skip (22-24 join) relative to primers amplifying the splice junction of exons 22 and 23 (representing the full length mRNA), as previously described. […] Error bars represent standard deviation of qRT-PCR triplicates. (C) Patient derived fibroblasts with exon 45-50 deletion (confirmed by microarray, see FIG. 6) were immortalized with lentiviral hTERT and transduced with inducible lentiviral MyoD [26]. Cells were grown to confluence, induced for MyoD activity, and fused for 10 days in low serum differentiation media. On Day 7, h51AON [5′ […] 3′] (SEQ ID NO:2) (same sequence as Pro051) within human exon 51 was added at concentrations indicated. Twenty-four hours later Dantrolene or vehicle was added. Cells were harvested 2 days later and total RNA isolated. RT-PCR amplified a fragment of cDNA from exons 42-53 which was followed by a nested PCR to generate a fragment spanning exons 43-52. The 540 bp product is the full length DMD mRNA species and the 307 bp product indicates the exon 51 skip isoform. Quantitation was performed using the Agilent Bioanalyzer and represented as the skip/full-length mRNA ratio.
Patient fibroblasts with a DMD exon 45-50 deletion were immortalized and transduced with a lenti-viral vector expressing inducible MyoD to create iDRMs (inducibly directly reprogrammable myotubes, specifically iDRM05017s). iDRM05017s were induced for MyoD activity and then cultured for 10 days in fusion media. On Day 7, AO was added for twenty-four hours then removed and Piperacetazine, Trifluoperazine Dihydrochloride, Fluphenazine Dihydrochloride or vehicle (Dimethyl sulfoxide; DMSO) were added in fresh media. After two days total RNA was harvested, cDNA reverse transcribed with a DMD specific primer in exon 54, and exon 51 skipping was detected by nested RT-PCR spanning exons 43-52. Quantitation of exon 51 skipping was performed using the Agilent Bioanalyzer and is represented as the proportion of exon 51 skipping. Error bars represent the standard deviation (SD) of 3 independent wells.
Patient fibroblasts were transduced with HTERT and an inducible MyoD vector [26]. […] Exon 51 skipping activity was assessed in the context of transfecting an exon 51 2′-O-methyl AO with equivalent sequence to Pro051 seven days after fusion. This AO is directed at an exonic splicing enhancer (ESE) sequence within exon 51. The AO was removed prior to addition of dantrolene and cultures were harvested two days later. A nested RT-PCR was performed between DMD exons 43-52 and levels of exon 51 skipping were determined by quantitating capillary electrophoresis separated fragments representing skipped and unskipped DMD mRNA.

The next data set relates to DMD patients. To be noted: oral, after 2 years of daily treatment; cited from earlier work.
The subject of a further data set is mdx mice. Particulars: mouse, in vivo; cited from earlier work.
For the next data set, the system named is exon skipping. The data set can be described thus: Counter screens, 16 point titrations and mdx mouse myotubes (validation of lead hits). The format is cell-based. An excerpt: The cell line, which was adapted to allow the screening of thousands of compounds in multiple replicates, was obtained from Dr. Qi Lu. […]

As to `O=C1CN(/N=C/c2ccc(-c3ccc([N+](=O)[O-])cc3)o2)C(=O)N1` [DANTROLENE], the “increase in fluorescence in the Ex50-GFP+AO compared to the reporter line without AO” value in data set [1] (12 or 16 point titrations from 100 uM, positivity criterion (FIG. 5 legend: >10%)) came to 10%. Further, in data set [1] (12 or 16 point titrations with AON6), the “dose response in Ex50-GFP reporter” value is on record as “evidence of a dose response”. Besides, in the data set on DMD exon 51 (compound added 24 h after AO for two days, nested RT-PCR exons 43-52), the “AO directed DMD exon 51 skipping” value is listed as “enhance AO directed DMD exon 51 skipping”. Moreover, the “enhancement of exon 51 skipping versus vehicle control” value with DMD exon 51 (with suboptimal dose of exon 51 AO, skip/full-length mRNA ratio, Bioanalyzer) is listed as “up to 8 fold”. In the data set on DMD patients, the creatine kinase levels entry was “slightly reduced”, the manual muscle test entry is “modest improvement” and the side effects entry is given as “without substantial harmful side effects”. The CK values result with mdx mice is reported as “lower CK values”. Moreover, the “efficacy in counter screen and on mdx mouse myotubes” value with exon skipping was “showing efficacy in counter screen and on mdx mouse myotubes”.
